Measured values: the supplement of paper PMC10307832

Legend:
Experiment in all cases: relative viability (nuclei count vs DMSO), 5 days (fraction); higher = more cells survive
[1] = compound: CCn1c(-c2nonc2N)nc2cnc(Oc3cccc(NC(=O)c4ccc(OCCN5CCOCC5)cc4)c3)cc21 + O=C(c1cc(Cc2n[nH]c(=O)c3ccccc23)ccc1F)N1CCN(C(=O)C2CC2)CC1 [Olaparib] (partner 8 µM)
Summary of the method: (§1)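 Cells from lung cancer lines were seeded into 1536-well plates and, one day later, dosed by pin tool. Treatments were either a single drug or a fixed dose of an anchor drug with five library-drug doses (not always all listed) in √10 steps. After 5 days, nuclei were stained in a one-step fixation (final 0.05% Triton X-100, 1% formaldehyde, 1 ug/ml Hoechst) and counted on 4× images, and relative viability is the treated-to-vehicle nuclei ratio, as the median of duplicate plates.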

[2] = compound: CCn1c(-c2nonc2N)nc2cnc(Oc3cccc(NC(=O)c4ccc(OCCN5CCOCC5)cc4)c3)cc21 + N=C(N)NC(=N)NCCc1ccccc1 [Phenformin] (partner 250 µM)
Summary of the method: as §1

[3] = compound: CCC1=CN=CN=C1N2CCN(CC2)CC3=NC4=C(N3)C=C(C=C4)C(F)(F)F + CC(=O)c1c(C)c2cnc(Nc3ccc(N4CCNCC4)cn3)nc2n(C2CCCC2)c1=O [Palbociclib] (partner 0.5 µM)
Summary of the method: as §1

Mirin + Phenformin = compound: N=C1NC(=O)/C(=C/c2ccc(O)cc2)S1 [Mirin] + N=C(N)NC(=N)NCCc1ccccc1 [Phenformin] (partner 250 µM)
Summary of the method: as §1

Cell Line	relative viability ([1]; first compound 0.04 µM)	relative viability ([1]; first compound 0.1265 µM)	relative viability ([1]; first compound 0.4 µM)	relative viability ([1]; first compound 1.265 µM)	relative viability ([1]; first compound 4 µM)	relative viability ([2]; first compound 0.04 µM)	relative viability ([2]; first compound 0.1265 µM)	relative viability ([2]; first compound 0.4 µM)	relative viability ([2]; first compound 1.265 µM)	relative viability ([2]; first compound 4 µM)	relative viability ([3]; first compound 0.04 µM)	relative viability ([3]; first compound 0.1265 µM)	relative viability ([3]; first compound 0.4 µM)	relative viability ([3]; first compound 1.265 µM)	relative viability ([3]; first compound 4 µM)	relative viability (Mirin + Phenformin; first compound 0.25 µM)	relative viability (Mirin + Phenformin; first compound 0.7906 µM)	relative viability (Mirin + Phenformin; first compound 2.5 µM)	relative viability (Mirin + Phenformin; first compound 7.906 µM)	relative viability (Mirin + Phenformin; first compound 25 µM)
NCI-H2023	0.472	0.438	0.408	0.264	0.245	0.538	0.381	0.328	0.223	0.186	0.422	0.347	0.358	0.376	0.345	0.419	0.461	0.442	0.426	0.418
PC-14	0.27	0.206	0.287	0.309	0.326	0.962	0.556	0.549	0.258	0.457	0.519	0.518	0.548	0.608	0.506	0.595	0.509	0.659	0.553	0.814
NCI-H727		0.801	0.657	0.487	0.59	0.793	0.694	0.499	0.588	0.529	0.688	0.644	0.526	0.576	0.661	0.828	0.922	0.444	0.657	0.577
NCI-H1734	0.654	0.583	0.557	0.442	0.328	0.427	0.388	0.209	0.284	0.201	0.33	0.362	0.344	0.291	0.317	0.395	0.324	0.35	0.394	0.352
NCI-H1650	0.74	0.849	0.744	0.696	0.715	0.47	0.382	0.229	0.397	0.369	0.325	0.311	0.348	0.223	0.39	0.39	0.456	0.435	0.423	0.295
NCI-H647	0.718	0.512	0.428	0.348	0.302	0.455	0.399	0.357	0.339	0.272	0.518	0.345	0.346	0.292	0.374	0.613	0.455	0.521	0.542	0.36
NCI-H1944	0.42	0.419	0.358	0.386	0.327	0.192	0.161	0.109	0.111	0.102	0.399	0.358	0.298	0.309	0.303	0.206	0.227	0.186	0.169	0.167
LK-2	1.13	0.745	0.367	0.326	0.555	0.864	0.618	0.167	0.189	0.244	0.685	0.469	0.752	0.381	0.594	0.408		0.363	0.203	0.167
HCC-15	0.745	0.737	0.766	0.581	0.542	0.532	0.362	0.269		0.364	0.717	0.723	0.646	0.612	0.682	0.495	0.478	0.446	0.431	0.426
NCI-H838	0.405	0.347	0.383	0.221	0.222	0.501	0.285	0.201	0.227	0.222	0.231	0.22	0.215	0.178	0.218	0.654	0.292	0.634	0.626	0.468
HOP-62	0.679	0.379	0.372		0.351	0.739	0.686	0.55	0.357	0.368	0.475	0.451	0.414	0.438	0.413	0.608	0.707	0.726	0.596	0.723
NCI-H322M	1.14	1.01	0.935	0.661	0.702	1.12	0.982	0.632	0.557	0.579	0.455	0.452	0.514	0.489	0.521	0.792	0.623	0.777	0.963	0.628
NCI-H1395	0.384	0.41	0.401	0.374	0.352	0.517	0.45	0.453	0.305	0.365	0.598	0.596	0.637		0.665	0.41	0.421	0.435	0.463	0.412
NCI-H650	0.374	0.377	0.279	0.259	0.236	0.485	0.381	0.258	0.246	0.292	0.318	0.344	0.292	0.276	0.313	0.436	0.384	0.453		0.546
NCI-H661	0.693	0.757	0.749	0.579	0.489	0.258	0.253	0.203	0.23	0.195	0.378	0.398	0.416	0.386	0.38	0.292	0.278	0.287	0.272	0.247
EKVX	1.18	0.856	0.802	0.635	0.79	0.275	0.242	0.136	0.227	0.236	0.405	0.387	0.325	0.337	0.377	0.251	0.238	0.246	0.224	0.258
NCI-H520	0.432	0.347	0.264	0.237	0.237	0.887	0.631	0.404	0.306	0.288	0.255	0.233	0.194	0.174	0.2	0.751	0.459	0.701	0.338	0.356

Cell Line	relative viability ([1]; first compound 0.04 µM)	relative viability ([1]; first compound 0.1265 µM)	relative viability ([1]; first compound 0.4 µM)	relative viability ([1]; first compound 1.265 µM)	relative viability ([1]; first compound 4 µM)	relative viability ([2]; first compound 0.04 µM)	relative viability ([2]; first compound 0.1265 µM)	relative viability ([2]; first compound 0.4 µM)	relative viability ([2]; first compound 1.265 µM)	relative viability ([2]; first compound 4 µM)	relative viability ([3]; first compound 0.04 µM)	relative viability ([3]; first compound 0.1265 µM)	relative viability ([3]; first compound 0.4 µM)	relative viability ([3]; first compound 1.265 µM)	relative viability ([3]; first compound 4 µM)	relative viability (Mirin + Phenformin; first compound 0.25 µM)	relative viability (Mirin + Phenformin; first compound 0.7906 µM)	relative viability (Mirin + Phenformin; first compound 2.5 µM)	relative viability (Mirin + Phenformin; first compound 7.906 µM)	relative viability (Mirin + Phenformin; first compound 25 µM)
NCI-H2342	0.439	0.508	0.469	0.368	0.361	0.71	0.585	0.581	0.449	0.66	0.569	0.514	0.511	0.463	0.477	0.724	0.559	0.658	0.37	0.48
LCLC-97TM1	0.518	0.381		0.387	0.423	0.485	0.431	0.23	0.463	0.361	0.196	0.2	0.228	0.282	0.196	0.445	0.515	0.439	0.36	0.53
COR-L23	0.346	0.301	0.269	0.145	0.124	0.451	0.285	0.185	0.155	0.13	0.234	0.298	0.259	0.254	0.282	0.465	0.46	0.45	0.469	0.481
NCI-H1355	0.731	0.832	0.739	0.649	0.61	0.53	0.426	0.261	0.24	0.227	0.412	0.387	0.407	0.373	0.368	0.472	0.463	0.456	0.47	0.521
NCI-H1666	0.718	0.863	0.702	0.717	0.551	0.597	0.603	0.582	0.211	0.259	0.609	0.609	0.669	0.659	0.608	0.568	0.62	0.598	0.539	0.49
EPLC-272H	1.09	0.928	0.827	0.449	0.365	0.369	0.306	0.216	0.245	0.229	0.338	0.302	0.324	0.318	0.327	0.354		0.307	0.254	0.234
ChaGo-K-1	0.512	0.443	0.443	0.399	0.387	0.599	0.413	0.306	0.351	0.398	0.976	0.946	0.929	0.907	0.881	0.485	0.428	0.49	0.423	0.324
NCI-H1651	0.18	0.182	0.195	0.17	0.169	0.433	0.323	0.287	0.266	0.239	0.558	0.562	0.513	0.463	0.532	0.332	0.34	0.324	0.336	0.319
NCI-H2087	0.802	0.539	0.559	0.483	0.586	0.598	0.458	0.474	0.432	0.372	0.264	0.235	0.242	0.184	0.201	0.494	0.559	0.454	0.429	0.613
HCC-44	1.07	0.996	0.945	0.999	0.802	0.249	0.216	0.113	0.096	0.074	0.965	0.956	0.991	0.937	0.859	0.165	0.102	0.126	0.213	0.314
RERF-LC-KJ	0.898	0.84	0.759	0.447	0.388	0.487	0.42	0.379	0.289	0.324	1.05	1.06	1.02	0.971	0.923	0.37	0.543	0.418	0.487	0.461
LOU-NH91	0.919	0.756	0.665	0.494	0.534	0.797	0.605	0.465	0.389	0.404	0.523	0.565	0.541	0.542	0.558	0.718	0.671	0.703	0.668	0.856
PC-3 [JPC-3]	1.13	1.14	0.966	0.746	0.861	0.5	0.488	0.478	0.465	0.459		0.53	0.56	0.565	0.543	0.462	0.48	0.513	0.513	0.522
NCI-H2126	1.09	0.966	0.907	0.889	0.854	0.646	0.571	0.392		0.405	0.365	0.333	0.376	0.354	0.369	0.549	0.471	0.509	0.546	0.532
LU99A	0.313	0.299	0.262	0.256	0.244	0.614	0.706	0.623	0.683	0.505	0.428	0.431	0.378	0.439	0.435	0.839	0.687	0.882	0.762	0.766
BEN	1.29	0.894	0.714	0.368	0.415	0.29	0.275	0.21	0.235	0.228	0.454	0.487	0.469	0.437	0.464	0.255	0.288	0.266	0.248	0.273
